Counter-ions that a name gives are not always drawn.
Experiments:
TGR5 (STC1 cell line) = target: T1, TGR5 (STC1 cell line) (Mus musculus, UniProt Q80SS6); assay: STC1 cAMP Agonist EC50 Determination
T1 sequence (Q80SS6 1-329): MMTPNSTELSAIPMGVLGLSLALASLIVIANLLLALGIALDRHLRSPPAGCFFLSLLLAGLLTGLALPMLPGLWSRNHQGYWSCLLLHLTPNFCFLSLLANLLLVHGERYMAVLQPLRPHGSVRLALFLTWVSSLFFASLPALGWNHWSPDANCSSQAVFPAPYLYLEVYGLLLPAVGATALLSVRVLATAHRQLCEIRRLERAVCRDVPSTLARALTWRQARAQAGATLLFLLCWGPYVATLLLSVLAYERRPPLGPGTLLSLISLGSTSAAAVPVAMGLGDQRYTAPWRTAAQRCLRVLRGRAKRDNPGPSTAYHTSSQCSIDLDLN
Experimental: Cell stocks were maintained and grown in a sub-confluent state using standard cell culture procedures. The day before the experiment, the cells were harvested with non-enzymatic cell dissociation buffer and resuspended in complete growth media at 4E5 c/ml. […] The seeded plates were incubated overnight at 37° C.
On the day of the experiment, Assay Buffer containing: HBSS with Ca^2+and Mg^2+; 5 μM HEPES; 0.1% BSA; and, 0.5 μM IBMX was prepared. The growth medium was washed from the cell plates and replaced with 20 μL of Assay Buffer. […] The reaction was stopped by the addition of 20 μL 0.1% Formic Acid to all wells. Sixty minutes later 30 μL 3 M deuterated AMP was added to all wells (as a control for volume addition to the mass spec). Plates were mixed on a plate shaker for 1 min and centrifugated (5 min 3000 RPMs no brakes).
Plates were run on a 4000 QTrap triple-quadrapole Mass spectrometer in positive ion mode coupled with a Biocius RapidFire 300is. […] Two ions (cAMP and deuterated AMP were measured using Multiple Reaction Monitoring (MRM) in positive ion mode and the area under the curve (AUC) was determined for each of the ions.
The data from the Mass Spec/Rapid Plate AUC for cAMP and deuterated AMP were imported to an Excel worksheet. A Normalized signal (NS) was generated for each well=(cAMP AUC for the well/deut AMP AUC for the well)*average deut AMP AUC for the plate). nM cAMP was calculated for each well from the cAMP standard curves located on each plate by first calculating the slope and deriving the intercept (b).
EC50 values were determined from a 4-point fit (Hill equation) of a single 11-point compound dosing.

[1] = target: T2, TGR5 (NCI-H716 cell line) (Homo sapiens, UniProt Q8TDU6); assay: NCI-H716 cAMP Agonist EC50 Determination
T2 sequence (Q8TDU6 1-330): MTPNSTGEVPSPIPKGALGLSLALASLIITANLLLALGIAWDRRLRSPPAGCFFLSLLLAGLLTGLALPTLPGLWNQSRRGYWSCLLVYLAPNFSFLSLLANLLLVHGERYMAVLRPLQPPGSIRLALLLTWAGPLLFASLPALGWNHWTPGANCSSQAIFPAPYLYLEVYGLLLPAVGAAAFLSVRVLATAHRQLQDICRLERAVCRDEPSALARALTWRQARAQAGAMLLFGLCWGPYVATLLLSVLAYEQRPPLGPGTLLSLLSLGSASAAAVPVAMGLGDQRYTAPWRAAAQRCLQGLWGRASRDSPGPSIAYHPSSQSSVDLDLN
Experimental: Cells were cultured in suspension using RPM containing: 10% HI FBS, and 1× Penn/Strep and were cryostored (1E7 cells/vial in 5% DMSO).
A Normalized signal (NS) is generated by the Envision for each well ((Read 1/Read 2)×10,000).
The data from the Envision were imported to an Excel worksheet. nM cAMP is calculated for each well from the cAMP standard curves located on each plate by first calculating the slope and deriving the intercept (b).
[formula] [formula] [formula] EC50 values were determined from a 4-point fit (Hill equation) of a single 11-point compound dosing.

Compound | EC50 (TGR5 (STC1 cell line)) [nM] | EC50 [1] [nM]
COc1cc(C2CCCc3nc(SCc4c(F)cc(CC5SC(=O)NC5=O)cc4F)n(-c4ccc(F)cc4)c32)ccc1Cl (centres unmarked) [Example 38, 5-(4-((7-(4-chloro-3-methoxyphenyl)-1-(4-fluorophenyl)-4,5,6,7-tetrahydro-1H-benzo[d]imidazol-2-ylthio)methyl)-3,5-difluorobenzyl)thiazolidine-2,4-dione trifluoroacetic acid] | 1250 | > 50000
C/N=C(\N)NCCCc1cc(F)c(CSc2nc3c(n2-c2ccc(F)cc2)C(c2ccc(Cl)c(OC)c2)CCC3)c(F)c1 (centres unmarked) [Example 39a, (E)-1-[3-[4-([[7-(4-chloro-3-methoxyphenyl)-1-(4-fluorophenyl)-4,5,6,7-tetrahydro-1H-1,3-benzodiazol-2-yl]sulfanyl]methyl)-3,5-difluorophenyl]propyl]-2-methylguanidine hydrochloride] | 360 | > 50000
COc1cc(C2CCCc3nc(SCc4c(F)cc(CCCN/C(N)=N/C#N)cc4F)n(-c4ccc(F)cc4)c32)ccc1Cl (centres unmarked) [Example 43, (E)-1-(3-(4-((7-(4-chloro-3-methoxyphenyl)-1-(4-fluorophenyl)-4,5,6,7-tetrahydro-1H-benzo[d]imidazol-2-ylthio)methyl)-3,5-difluorophenyl)propyl)-2-cyanoguanidine hydrochloride] | 670 | > 50000
COc1cc(C2CCCc3nc(SCc4c(F)cc(CC/C=N/NC(=N)N)cc4F)n(-c4ccc(F)cc4)c32)ccc1Cl (centres unmarked) [Example 47, (E)-2-(3-(4-((7-(4-chloro-3-methoxyphenyl)-1-(4-fluorophenyl)-4,5,6,7-tetrahydro-1H-benzo[d]imidazol-2-ylthio)methyl)-3,5-difluorophenyl)propylidene) hydrazinecarboximidamide hydrochloride] | 370 | 47300
C/N=C(\N)N/N=C/CCc1cc(F)c(CSc2nc3c(n2-c2ccc(F)cc2)C(c2ccc(Cl)c(OC)c2)CCC3)c(F)c1 (centres unmarked) [Example 48, (1E,2E)-2-(3-(4-((7-(4-chloro-3-methoxyphenyl)-1-(4-fluorophenyl)-4,5,6,7-tetrahydro-1H-benzo[d]imidazol-2-ylthio)methyl)-3,5-difluorophenyl)propylidene)-N′-methylhydrazinecarboximidamide hydrochloride] | 350 | > 50000
COc1cc(C2CCCc3nc(SCc4c(F)cncc4F)n(-c4ccc(F)cc4)c32)ccc1Cl (centres unmarked) [Example 50, 7-(4-chloro-3-methoxyphenyl)-2-((3,5-difluoropyridin-4-yl)methylthio)-1-(4-fluorophenyl)-4,5,6,7-tetrahydro-1H-benzo[d]imidazole trifluoroacetic acid] | 280 | 34700
COc1cc(C2CCCc3nc(SCc4ccncc4F)n(-c4ccc(F)cc4)c32)ccc1Cl (centres unmarked) [Example 51, 2-((3-fluoropyridin-4-yl)methylthio)-7-(4-chloro-3-methoxyphenyl)-1-(4-fluorophenyl)-4,5,6,7-tetrahydro-1H-benzo[d]imidazole trifluoroacetic acid] | 5500 | > 50000
COc1cc(C2CCCc3nc(SCc4ncccc4F)n(-c4ccc(F)cc4)c32)ccc1Cl (centres unmarked) [Example 52, 2-((3-fluoropyridin-2-yl)methylthio)-7-(4-chloro-3-methoxyphenyl)-1-(4-fluorophenyl)-4,5,6,7-tetrahydro-1H-benzo[d]imidazole trifluoroacetic acid] | 450 | > 50000
COc1cc(C2CCCc3nc(SCc4c(Cl)cncc4Cl)n(-c4ccc(F)cc4)c32)ccc1Cl (centres unmarked) [Example 54] | 4410 | > 50000
COc1cc(C2CCCc3nc(SCc4c(F)cncc4Cl)n(-c4ccc(F)cc4)c32)ccc1Cl (centres unmarked) [Example 55, 7-(4-chloro-3-methoxyphenyl)-2-[[(3-chloro-5-fluoropyridin-4-yl)methyl]sulfanyl]-1-(4-fluorophenyl)-4,5,6,7-tetrahydro-1H-1,3-benzodiazole bis(trifluoroacetic acid)] | 180 | > 50000
COc1cc(C2CCCc3nc(SCc4c(F)cncc4Br)n(-c4ccc(F)cc4)c32)ccc1Cl (centres unmarked) [Example 56, 2-((3-bromo-5-fluoropyridin-4-yl)methylthio)-7-(4-chloro-3-methoxyphenyl)-1-(4-fluorophenyl)-4,5,6,7-tetrahydro-1H-benzo[d]imidazole trifluoroacetic acid] | 130 | > 50000
COc1cc(C2CCCc3nc(SCc4ncccn4)n(-c4ccc(F)cc4)c32)ccc1Cl (centres unmarked) [Example 57, 7-(4-chloro-3-methoxyphenyl)-1-(4-fluorophenyl)-2-[(pyrimidin-2-ylmethyl)sulfanyl]-4,5,6,7-tetrahydro-1H-1,3-benzodiazole trifluoroacetic acid] | 650 | > 50000
COc1cc(C2CCCc3nc(SCc4sccc4Cl)n(-c4ccc(F)cc4)c32)ccc1Cl (centres unmarked) [Example 58, 2-((3-chlorothiophen-2-yl)methylthio)-7-(4-chloro-3-methoxyphenyl)-1-(4-fluorophenyl)-4,5,6,7-tetrahydro-1H-benzo[d]imidazole trifluoroacetic acid] | 1100 | > 50000
COc1cc(C2CCCc3nc(SCc4c(F)c[n+]([O-])cc4F)n(-c4ccc(F)cc4)c32)ccc1Cl (centres unmarked) [Example 59, 4-((7-(4-chloro-3-methoxyphenyl)-1-(4-fluorophenyl)-4,5,6,7-tetrahydro-1H-benzo[d]imidazol-2-ylthio)methyl)-3,5-difluoropyridine 1-oxide trifluoroacetic acid] | 2020 | > 50000

Second part, the compound after the results:

EC50 (TGR5 (STC1 cell line)) [nM] | EC50 [1] [nM] | Compound
16300 | > 50000 | COc1cc(C2CCCc3nc(SCc4c(F)cc(CCCN(C)C)cc4F)n(-c4ccc(F)cc4)c32)ccc1Cl (centres unmarked) [Example 39b, 3-(4-((7-(4-chloro-3-methoxyphenyl)-1-(4-fluorophenyl)-4,5,6,7-tetrahydro-1H-benzo[d]imidazol-2-ylthio)methyl)-3,5-difluorophenyl)-N,N-dimethylpropan-1-amine trifluoroacetic acid]
1360 | > 50000 | CCOC(=O)CCc1cc(F)c(CSc2nc3c(n2-c2ccc(F)cc2)C(c2ccc(Cl)c(OC)c2)CCC3)c(F)c1 (centres unmarked) [Example 40, Ethyl 3-(4-((7-(4-chloro-3-methoxyphenyl)-1-(4-fluorophenyl)-4,5,6,7-tetrahydro-1H-benzo[d]imidazol-2-ylthio)methyl)-3,5-difluorophenyl)propanoate trifluoroacetic acid]
890 | > 50000 | COc1cc(C2CCCc3nc(SCc4c(F)cc(CCCO)cc4F)n(-c4ccc(F)cc4)c32)ccc1Cl (centres unmarked) [Example 41, 3-(4-((7-(4-chloro-3-methoxyphenyl)-1-(4-fluorophenyl)-4,5,6,7-tetrahydro-1H-benzo[d]imidazol-2-ylthio)methyl)-3,5-difluorophenyl)propan-1-ol trifluoroacetic acid]
530 | > 50000 | COc1cc(C2CCCc3nc(SCc4c(F)cc(CCCNC(=N)N)cc4F)n(-c4ccc(F)cc4)c32)ccc1Cl (centres unmarked) [Example 42, 1-(3-(4-((7-(4-chloro-3-methoxyphenyl)-1-(4-fluorophenyl)-4,5,6,7-tetrahydro-1H-benzo[d]imidazol-2-ylthio)methyl)-3,5-difluorophenyl)propyl)guanidine trifluoroacetic acid]
1390 | > 50000 | COc1cc(C2CCCc3nc(SCc4c(F)cc(CCC(=O)O)cc4F)n(-c4ccc(F)cc4)c32)ccc1Cl (centres unmarked) [Example 44, 3-(4-((7-(4-chloro-3-methoxyphenyl)-1-(4-fluorophenyl)-4,5,6,7-tetrahydro-1H-benzo[d]imidazol-2-ylthio)methyl)-3,5-difluorophenyl)propanoic acid trifluoroacetic acid]
350 | > 50000 | COc1cc(C2CCCc3nc(SCc4c(F)cc(CCC(N)=O)cc4F)n(-c4ccc(F)cc4)c32)ccc1Cl (centres unmarked) [Example 45, 3-(4-((7-(4-chloro-3-methoxyphenyl)-1-(4-fluorophenyl)-4,5,6,7-tetrahydro-1H-benzo[d]imidazol-2-ylthio)methyl)-3,5-difluorophenyl)propanamide trifluoroacetic acid]
140 | > 50000 | COc1cc(C2CCCc3nc(SCc4c(F)cc(CCC#N)cc4F)n(-c4ccc(F)cc4)c32)ccc1Cl (centres unmarked) [Example 46, 3-(4-((7-(4-chloro-3-methoxyphenyl)-1-(4-fluorophenyl)-4,5,6,7-tetrahydro-1H-benzo[d]imidazol-2-ylthio)methyl)-3,5-difluorophenyl)propanenitrile trifluoroacetic acid]
940 | > 50000 | COc1cc(C2CCCc3nc(SCc4c(F)cc(CCc5nnn[nH]5)cc4F)n(-c4ccc(F)cc4)c32)ccc1Cl (centres unmarked) [Example 49, 2-(4-(2-(1H-tetrazol-5-yl)ethyl)-2,6-difluorobenzylthio)-7-(4-chloro-3-methoxyphenyl)-1-(4-fluorophenyl)-4,5,6,7-tetrahydro-1H-benzo[d]imidazole trifluoroacetic acid]

Source: patent US10077241B2 (Janssen Pharmaceutica NV, priority 2014, dated 2018)
